From patent US8236756B2, “Prodrugs cleavable by CD26” (Consejo Superior de Investigaciones Clentificas (CSIC), priority 2003, dated 2012) come the findings set out here.

One series concerns the target T1, purified CD26 (Homo sapiens, UniProt P27487).
T1 construct: made in house
The series is described as follows: Conversion of peptide prodrugs to parent compound by purified CD26 (HPLC). Format: biochemical. Particulars: for Conversion % to parent compound by purified CD26, 1 h / Conversion % to parent compound by purified CD26, 4 h / Conversion % to parent compound by purified CD26, 24 h: Table 1; for Conversion % to parent compound by purified CD26, 1 h / Conversion % to parent compound by purified CD26, 4 h / Conversion % to parent compound by purified CD26, 24 h / % conversion to parent compound by purified CD26, 1 h / % conversion to parent compound by purified CD26, 4 h / % conversion to parent compound by purified CD26, 24 h: purified CD26 1.5 mUnits; for % conversion to parent compound by purified CD26, 1 h / % conversion to parent compound by purified CD26, 4 h / % conversion to parent compound by purified CD26, 24 h: Table 2. On the procedure:
To reveal whether CD26 recognizes such synthetic di/tripeptide derivatives of lipophilic nucleoside analogues as a substrate, 50 μM CAM-405 or CAM-431 was exposed to 5.7 mUnits of purified CD26, and the conversion of CAM-405 or CAM-431 to respectively CAM-212 or CAM-403 (Val-NAP-TSAO) was recorded in function of incubation time by HPLC analysis. […] Within the first 10 min of the reaction, at least 20% of CAM-405 had been converted to CAM-212, fifty percent of the TSAO dipeptide derivative was converted to CAM-212 within 30 min of the reaction and ˜67% of CAM-405 was hydrolyse after 60 min. Thus, the reaction rate started already to slow down after the first 10 min of drug exposure (FIG. 2). Most likely, the release of the reaction product Val-Pro dose-dependently feed-back inhibited the CD26-catalysed dipeptidyl-peptidase reaction. […] Thus, in the presence of 50 μM CAM-405, hydrolysis of 50% of CAM-405 to CAM-212 results in the appearance of 25 μM Val-Pro, that is a concentration that (feed-back) inhibits the CD26 reaction by ˜50%. These findings explain why the CD26-catalysed reaction levels-off shortly after the start of the exposure of the drug to CD26. […] Thus, a further level of modulation of the rate of prodrug release can be introduced by choosing a dipeptide moiety that competes for the active site of CD26, until the dipeptide has diffused from the tissue wherein CD26 is present. The inhibitory activity of any dipeptide can be evaluated by the above mentioned assay.
The conversion rate in function of time is given in Table 1 for NAP-TSAO-dipeptides where the dipeptide consists of: Val-Pro, Val-D-Pro, Asp-Pro, Lys-Pro, Tyr-Pro, Gly-Pro, Val-4-hydroxyPro, Gly-3,4-dihydroxyPro, but also Val-Gly, Val-Ala, Val-Leu and Val-Phe. It is clear that the conversion rate to the parent NAP-TSAO differs depending the nature of the dipeptide. Also, when the terminal amine of the dipeptide has been blocked by a lipophilic group (i.e. methyl, Z or Fmoc), the prodrug looses measurable substrate activity for CD26.
The conversion rate in function of time is given in Table 2 for tetrapeptide NAP-TSAO compounds where the tetrapeptide consists of: Val-Pro-Val-Pro [SEQ ID no:6] (CAM 467), Val-Ala-Val-Pro [SEQ ID no:7] (CAM 473) or Lys-Pro-Asp-Pro [SEQ ID no:8] (CAM 477). […] Only traces of dipeptide prodrug (CAM 405) is seen as intermediate in the conversion of the tetrapeptide CAM 473 to NAP-TSAO.
All enzyme activity assays were performed in Eppendorf tubes on a heating block at 37° C. To each tube were added 32 μl CD26 (at a final concentration of 1.5 milliUnits) or 10 μl foetal bovine serum (BS) (final concentration: 2.5% BS in PBS; preheated at 56° C. for 30 min) or 10 μl human serum (HS) (final concentration: 2.5% HS in PBS), 40 μl of appropriate concentrations of inhibitor (Diprotin A) solution in PBS (for the exact concentrations, see the legend to FIG. 5), CAM-405 (the substrate of the reaction) at […] (final concentration) and PBS to reach a total volume of 400 μl. The pH of the reaction mixture was 7.5, which is virtually identical to the physiological pH of plasma. The reaction was started by the addition of the enzyme or serum and carried out at 37° C. After 5 hr, 100 μl reaction mixture was taken from the Eppendorf tube and added to 200 μl cold methanol to precipitate the proteins. After 10 min standing on ice, the contents of the tubes were centrifuged and the supernatants analysed by HPLC on a reverse phase column (RP-8, Merck Laboratories). CAM-405 was separated from CAM-212 (the product of the reaction) by a gradient of 50 mM sodium phosphate+5 mM heptane sulfonic acid pH 3.2 (Buffer A) and acetonitrile (Buffer B) as follows: Buffer A: 98%+2% Buffer B, 2 min; linear gradient to 20% Buffer. […]

Series [1] can be described thus: Conversion of prodrugs to parent compound by human serum diluted in PBS. Format: in vitro ADME. The following applies: 50 μM; 20% human serum in PBS (FIG. 6). On the procedure: Human and bovine serum were incubated for 3 hr, 6 hr and/or 24 hr at 37° C. in the presence of 50 μM CAM-405. The sera were diluted in PBS at a final concentration of 0.5, 1, 2.5 or 5%. […] The longer the incubation time, and the higher the serum concentration used, the faster the conversion of CAM-405 to CAM-212 occurred (FIG. 4). As also noted for CD26, HS- and BS-catalysed reaction slowed down in function of time, and was not linearly proportional with serum concentration (FIG. 4). These findings provide again evidence for a pronounced feed-back inhibition of dipeptidyl-peptidase activity in human and bovine serum by the released Val-Pro dipeptide. HS was more efficient in converting CAM-405 to CAM-212 than BS (FIG. 4). Since 1% HS is able to hydrolyse ˜20% of 50 μM CAM-405 within 3 hrs of incubation, it could be calculated that undiluted serum would have been able to convert this prodrug amount to its parent compound at a hundred fold higher speed, that is, within 1.8 min, provided that no feed-back inhibition would have occurred (as expected in the intact organism where release of Pro-Val would immediately result in disappearance from the plasma due to several mechanisms including organ uptake, renal excretion, etc.).
Only a very limited amount of NAP-TSAO (but not D-Pro-NAP-TSAO) had been detected (FIG. 6).
Ten percent BS or HS converted 40 to 70% of PI-2 to PI-1 in one hour (FIG. 10). Two percent BS and HS converted PI-2 to PI-1 by 8% and 25%, respectively. After 4 hrs, 35% and 95% of compound was hydrolyzed by BS and HS, respectively (FIG. 11).
The TSAO derivatives depicted in FIG. 1 can be synthesised as described below. GlyPro-pNA (GP-pNA), Diprotin A and Val-Pro were purchased from Sigma-Aldrich (Bornem, Belgium). CD26 was purified as described before [De Meester et al. J. Immunol. Methods (1996), 189: 99-105]. Foetal bovine serum (FBS) was obtained from Integro (Dieren, The Netherlands). Human serum represented a pooled serum that was derived from 10 healthy volunteers (blood donors). Human lymphocyte CEM cells were derived from the ATCC (Rockville, Md.).

Series [2] in a line: Solubility in Milli-Q water. Particulars: 1 mg/ml in Milli-Q water; 2 × 10 sec sonication, 4 days shaking, room temperature; centrifugation, U.V. spectrum. Format: physicochemical. From the text:
It is also clear that the nature of the dipeptide moiety present on NAP-TSAO markedly affect prodrug solubility in water.

T1 sequence (P27487 whole entry): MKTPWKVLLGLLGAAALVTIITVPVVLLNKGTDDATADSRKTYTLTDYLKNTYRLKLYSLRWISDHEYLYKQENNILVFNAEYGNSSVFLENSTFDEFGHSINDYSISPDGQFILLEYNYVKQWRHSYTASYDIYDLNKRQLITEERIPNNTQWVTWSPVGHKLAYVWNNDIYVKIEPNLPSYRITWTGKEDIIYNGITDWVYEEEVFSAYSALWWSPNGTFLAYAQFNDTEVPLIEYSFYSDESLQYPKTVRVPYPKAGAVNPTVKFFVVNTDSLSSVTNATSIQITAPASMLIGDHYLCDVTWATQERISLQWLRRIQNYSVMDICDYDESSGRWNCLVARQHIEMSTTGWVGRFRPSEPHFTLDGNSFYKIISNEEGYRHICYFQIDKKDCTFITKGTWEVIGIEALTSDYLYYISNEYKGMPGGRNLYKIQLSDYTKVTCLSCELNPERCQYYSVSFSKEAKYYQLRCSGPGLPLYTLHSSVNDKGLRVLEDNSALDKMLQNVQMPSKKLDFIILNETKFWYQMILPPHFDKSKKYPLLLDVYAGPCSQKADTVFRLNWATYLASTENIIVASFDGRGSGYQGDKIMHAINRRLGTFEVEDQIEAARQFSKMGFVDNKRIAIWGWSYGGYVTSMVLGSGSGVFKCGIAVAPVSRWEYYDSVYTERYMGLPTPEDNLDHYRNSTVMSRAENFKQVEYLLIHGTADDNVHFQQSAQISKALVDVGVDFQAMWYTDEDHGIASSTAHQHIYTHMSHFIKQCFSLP

`Cc1cn(C2OC(CO[Si](C)(C)C(C)(C)C)C3(OS(=O)(=O)C=C3N)C2O[Si](C)(C)C(C)(C)C)c(=O)n(CCCNC(=O)C(CC(C)C)NC(=O)C(N)C(C)C)c1=O` (stereo not drawn) [CAM-426, H-Val-Leu-NAP-TSAO]: at purified CD26, the “Conversion % to parent compound by purified CD26, 1 h” value (shortened to “Conversion % to parent compound … 1 h”) worked out at 0%; the “Conversion % to parent compound by purified CD26, 4 h” value (“Conversion % … by purified CD26, 4 h” for short) worked out at 0%; the “Conversion % to parent compound by purified CD26, 24 h” value (“Conversion % … 24 h” for short) turned out to be 0%. The “Conversion by 20% human serum, in words” value in series [1] is “convert to a limited extent”.
As to `Cc1cn(C2OC(CO[Si](C)(C)C(C)(C)C)C3(OS(=O)(=O)C=C3N)C2O[Si](C)(C)C(C)(C)C)c(=O)n(CCCNC(=O)C(NC(=O)C2CCCN2C(=O)C(N)C(C)C)C(C)C)c1=O` (stereo not drawn) [CAM-431, H-Val-Pro-Val-NAP-TSAO], at purified CD26, the “Conversion % … by purified CD26, 4 h” value is 51%; the “Conversion % … 24 h” value was about 70%; the “Conversion / substrate activity with purified CD26, in words” value is given as “hydrolyse by CD26”. Moreover, the “Conversion by 20% human serum, in words” value in series [1] is given as “very efficiently converted predominantly to Val-TSAO”.
Turning to `Cc1cn(C2OC(CO[Si](C)(C)C(C)(C)C)C3(OS(=O)(=O)C=C3N)C2O[Si](C)(C)C(C)(C)C)c(=O)n(CCCNC(=O)[C@H](C)NC(=O)[C@@H](N)C(C)C)c1=O` (stereo partly drawn) [CAM-424, H-Val-Ala-NAP-TSAO], on purified CD26, the “Conversion % to parent compound … 1 h” value is listed as 0%; the “Conversion % … by purified CD26, 4 h” value worked out at 6.5%; the “Conversion % … 24 h” value amounted to 35%; the “% conversion to parent compound by purified CD26, 1 h” value is recorded as 0%. On purified CD26, the “% conversion to parent compound by purified CD26, 4 h” value worked out at 6.5% and the “% conversion to parent compound by purified CD26, 24 h” value came out at 35%. In addition, in series [2], the “Spectrum (~265 nm)” value is listed as 0.650.
As to `Cc1cn(C2OC(CO[Si](C)(C)C(C)(C)C)C3(OS(=O)(=O)C=C3N)C2O[Si](C)(C)C(C)(C)C)c(=O)n(CCCNC(=O)C(Cc2ccccc2)NC(=O)C(N)C(C)C)c1=O` (stereo not drawn) [CAM-428, H-Val-Phe-NAP-TSAO], at purified CD26, the “Conversion % to parent compound … 1 h” value is 0%; the “Conversion % … by purified CD26, 4 h” value was 0%; the “Conversion % … 24 h” value was found to be 0%. Besides, the “Conversion by 20% human serum, in words” value in series [1] is “convert to a limited extent”.
On to `Cc1cn(C2OC(CO[Si](C)(C)C(C)(C)C)C3(OS(=O)(=O)C=C3N)C2O[Si](C)(C)C(C)(C)C)c(=O)n(CCCNC(=O)CNC(=O)[C@@H](N)C(C)C)c1=O` (stereo partly drawn) [CAM-422, H-Val-Gly-NAP-TSAO], for which, at purified CD26, the “Conversion % to parent compound … 1 h” value came out at 0%; the “Conversion % … by purified CD26, 4 h” value is 0%; the “Conversion % … 24 h” value stood at 0%. The “Conversion by 20% human serum, in words” value in series [1] is “efficiently (but solely) converted to Gly-NAP-TSAO”. The “Spectrum (~265 nm)” value in series [2] is listed as 1.886.
Turning to `Cc1cn([C@@H]2O[C@H](CO[Si](C)(C)C(C)(C)C)[C@@]3(OS(=O)(=O)C=C3N)[C@H]2O[Si](C)(C)C(C)(C)C)c(=O)n(C)c1=O` [m-3T-TSAO, 3-methyl-TSAO-T, reference compound], the “Spectrum (~265 nm)” value in series [2] is on record as 0.100.
`Cc1cn(C2OC(CO[Si](C)(C)C(C)(C)C)C3(OS(=O)(=O)C=C3N)C2O[Si](C)(C)C(C)(C)C)c(=O)n(CCCNC(=O)[C@H]2CCCN2C(=O)[C@@H](N)C(C)C)c1=O` (stereo partly drawn) [CAM-430, H-Val-D-Pro-NAP-TSAO]: at purified CD26, the “Conversion % to parent compound … 1 h” value is 0%; the “Conversion % … by purified CD26, 4 h” value was about 1%; the “Conversion % … 24 h” value is on record as about 2%. The “Conversion by 20% human serum, in words” value in series [1] is given as “very stable”. Besides, the “Spectrum (~265 nm)” value in series [2] is 3.220.
Turning to `Cc1cn(C2OC(CO[Si](C)(C)C(C)(C)C)C3(OS(=O)(=O)C=C3N)C2O[Si](C)(C)C(C)(C)C)c(=O)n(CCCNC(=O)C2CCCN2C(=O)C(NC(=O)C(C)NC(=O)C(N)C(C)C)C(C)C)c1=O` (stereo not drawn) [CAM-473, H-Val-Ala-Val-Pro-NAP-TSAO], at purified CD26, the “% conversion to parent compound by purified CD26, 1 h” value was 12%; the “% conversion to parent compound by purified CD26, 4 h” value turned out to be 54%; the “% conversion to parent compound by purified CD26, 24 h” value is given as 70%; the “Conversion / substrate activity with purified CD26, in words” value is reported as “occurs faster than with the Val-Ala-NAP-TSAO”.
